Assay results published in patent US20040248919A1, “Fluorinated trienes and their use as rxr modulators” (priority 2001, published 2004).
pKi: −log10 of the molar value.

Columns and labels:
Test in all cases: RXR binding, competition with tritiated retinoid
[1] = biological target: T1, RXRβ (UniProt P28704); details: read-out: RXR Binding beta
T1 sequence (P28704 1-520): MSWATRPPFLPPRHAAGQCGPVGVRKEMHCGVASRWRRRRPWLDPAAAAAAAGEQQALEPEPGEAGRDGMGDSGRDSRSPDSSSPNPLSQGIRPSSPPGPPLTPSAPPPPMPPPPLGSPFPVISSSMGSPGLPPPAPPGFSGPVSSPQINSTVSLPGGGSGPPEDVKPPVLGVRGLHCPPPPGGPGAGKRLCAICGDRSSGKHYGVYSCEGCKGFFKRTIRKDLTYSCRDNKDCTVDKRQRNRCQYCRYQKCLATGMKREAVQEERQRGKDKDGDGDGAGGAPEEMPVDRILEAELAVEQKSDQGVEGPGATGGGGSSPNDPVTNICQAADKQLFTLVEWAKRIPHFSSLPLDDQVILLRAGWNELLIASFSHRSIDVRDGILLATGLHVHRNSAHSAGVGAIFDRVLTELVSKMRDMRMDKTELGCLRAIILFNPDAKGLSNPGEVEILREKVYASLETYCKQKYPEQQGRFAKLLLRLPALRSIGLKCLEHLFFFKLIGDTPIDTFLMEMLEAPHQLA
Excerpt: (§1) In addition to the cotransfection data, the binding of selected compounds of the present invention to the RAR and RXR receptors was also investigated according to the methodology described in M. F., Boehm, et al., “Synthesis and Structure-Activity Relation-ships of Novel Retinoid X Receptor Selective Retinoids”, 37 J. Med. Chem., 2930 (1994); M. F. Boehm, et al., “Synthesis of High Specific Activity [^3H]-9-cis Retinoic Acid and Its Application for Identifying Retinoids with Unusual Binding Properties”, 37 J. Med. Chem., 408 (1994), and E. A. Allegretto, et al., “Characterization and Comparison of Hormone-Binding and Transactivation Properties of Retinoic Acid and Retinoid X Receptors Expressed in Mammalian Cells and Yeast”, 268 J. Biol. Chem., 22625 (1993), the disclosures of which are herein incorporated by reference.
(§2) Non-specific binding was defined as that binding remaining in the presence of 500 nM of the appropriate unlabelled compound. At the end of the incubation period, bound ligand was separated from free. The amount of bound tritiated retinoid was determined by liquid scintillation counting of an aliquot (700 μL) of the supernatant fluid or the hydroxylapatite pellet.
(§3) After correcting for non-specific binding, IC50 values were determined. The IC50 value is defined as the concentration of competing ligand needed to reduce specific binding by 50%. The IC50 value was determined graphically from a log-logit plot of the data. The Ki values were determined by application of the Cheng-Prussof equation to the IC50 values, the labeled ligand concentration and the Kd of the labeled ligand.

[2] = biological target: T2, RXRγ (UniProt P28705); details: read-out: RXR Binding gamma
T2 sequence (P28705 1-463): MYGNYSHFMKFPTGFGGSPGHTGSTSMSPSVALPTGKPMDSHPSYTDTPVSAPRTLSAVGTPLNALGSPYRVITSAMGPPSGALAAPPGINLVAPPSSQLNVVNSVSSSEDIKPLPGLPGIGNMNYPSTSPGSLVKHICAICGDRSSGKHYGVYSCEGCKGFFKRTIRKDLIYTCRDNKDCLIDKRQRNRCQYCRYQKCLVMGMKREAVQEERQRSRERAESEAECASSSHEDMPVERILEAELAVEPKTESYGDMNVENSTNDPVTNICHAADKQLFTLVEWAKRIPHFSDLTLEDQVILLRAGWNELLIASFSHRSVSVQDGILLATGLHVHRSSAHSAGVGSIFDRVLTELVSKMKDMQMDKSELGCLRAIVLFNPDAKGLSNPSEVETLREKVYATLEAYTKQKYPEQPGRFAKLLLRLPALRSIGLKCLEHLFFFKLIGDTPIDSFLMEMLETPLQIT
Excerpt: as §1, §2, §3

[3] = biological target: T3, RXRα (Homo sapiens, UniProt P19793); details: read-out: RXR Binding alpha
T3 sequence (P19793 1-462): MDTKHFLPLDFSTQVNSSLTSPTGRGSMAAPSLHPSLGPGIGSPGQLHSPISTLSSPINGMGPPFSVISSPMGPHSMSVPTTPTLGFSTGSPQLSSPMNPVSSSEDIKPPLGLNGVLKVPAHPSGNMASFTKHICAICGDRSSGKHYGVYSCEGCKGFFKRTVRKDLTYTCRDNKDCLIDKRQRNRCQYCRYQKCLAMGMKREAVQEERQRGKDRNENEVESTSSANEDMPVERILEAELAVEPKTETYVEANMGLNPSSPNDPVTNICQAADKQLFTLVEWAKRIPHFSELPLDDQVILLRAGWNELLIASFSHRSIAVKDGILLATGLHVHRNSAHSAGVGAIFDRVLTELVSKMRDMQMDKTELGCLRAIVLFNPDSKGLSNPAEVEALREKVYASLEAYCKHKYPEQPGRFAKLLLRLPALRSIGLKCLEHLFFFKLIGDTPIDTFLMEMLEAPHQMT
Excerpt: as §1, §2, §3

Compound	pKi [1]	pKi [2]	pKi [3]
CCCCOc1c(\C(C)=C/C=C/C(=C/C(=O)O)C(F)(F)F)cc(C(C)C)cc1C(C)C [Example 3, (2Z,4E,6Z)-7-(2-Butoxy-3,5-diisopropylphenyl)-3-trifluoromethyl-octa-2,4,6-trienoic acid]	6.69	6.18	5.88
C/C(=C/C=C(F)/C(C)=C/C(=O)O)c1cc(C(C)(C)C)cc(C(C)(C)C)c1OCC(F)F [Example 1, 7-[3,5-di-tert-butyl-2-(2,2-difluoroethoxy)-phenyl]4-fluoro-3-methyl-octa-2,4,6-trienoic acid]	7.92	7.68	8.32
CCOc1c(\C(=C/C=C/C(C)=C/C(=O)O)C(F)(F)F)cc(C(C)(C)C)cc1C(C)(C)C [Example 5, (2E,4E,6E)-3-methyl-7-(2-ethoxy-3,5-di-tert-butylphenyl)-8,8,8-trifluoroocta-2,4,6-trienoic acid]	7.28	6.74	7.42
C/C(=C/C(F)=C/C(C)=C/C(=O)O)c1cc(C(C)(C)C)cc(C(C)(C)C)c1OCC(F)F [Example 2, 7-[3,5-Di-tert-butyl-2-(2,2-difluoroethoxy)-phenyl]-5-fluoro-3-methyl-octa-2,4,6-trienoic acid]	7.82	7.54	8.09
CCCCOc1c(\C(C)=C/C=C/C(=C\C(=O)O)C(F)(F)F)cc(C(C)C)cc1C(C)C [Example 4, (2E,4E,6Z)-7-(2-Butoxy-3,5-diisopropylphenyl)-3-trifluoromethyl-octa-2,4,6-trienoic acid]	5.97	6.06	5.04
